ChEMBL document CHEMBL2157931, “Discovery of a novel series of inhibitors of lymphoid tyrosine phosphatase with activity in human T cells” (J Med Chem, 2011)
Activity calls are given as the source filed them. No cut-off for these calls is given here.

target: T1, Tyrosine-protein phosphatase non-receptor type 7 (Homo sapiens, UniProt P35236); assay: not given; details: not given
T1 sequence (P35236 whole entry): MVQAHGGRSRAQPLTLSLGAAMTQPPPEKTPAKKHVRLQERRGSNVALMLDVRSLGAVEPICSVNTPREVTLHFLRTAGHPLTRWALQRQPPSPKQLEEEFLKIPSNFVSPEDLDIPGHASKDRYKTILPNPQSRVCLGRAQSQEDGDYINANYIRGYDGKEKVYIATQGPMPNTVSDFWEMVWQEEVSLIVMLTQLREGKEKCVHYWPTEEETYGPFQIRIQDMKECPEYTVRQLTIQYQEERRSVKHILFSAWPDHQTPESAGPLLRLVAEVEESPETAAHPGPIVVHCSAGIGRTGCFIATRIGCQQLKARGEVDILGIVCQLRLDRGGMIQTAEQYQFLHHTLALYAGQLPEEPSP

Row | Compound | IC50 [µM]
1 | Cc1ccc2cc(C#N)c(SCC(=O)Nc3ccc4c(c3)OCO4)nc2c1 | 12
2 | Cc1cccc2cc(C#N)c(SCC(=O)Nc3cccc(Cl)c3)nc12 | 22
3 | CCOc1ccc(NC(=O)CSc2nc3c(C)cc(C)cc3cc2C#N)cc1 | 16
4 | Cc1ccc2[nH]c(=O)c(C(c3nnnn3C3CCCC3)N3CCCCC3)cc2c1 (stereo unspecified) | > 75
5 | Cc1ccc2cc(C#N)c(SCC(=O)NC3CCCCC3)nc2c1C | 8
6 | Cc1ccc2sc(NC(=O)c3sc4ccccc4c3Cl)nc2c1 | 8
7 | Cc1ccc(NC(=O)CSc2nc3c(C)c(C)ccc3cc2C#N)cc1C | 20
8 | COc1ccc2cc(C#N)c(SCC(=O)Nc3cccc(C)c3C)nc2c1 | 15

target: T2, Tyrosine-protein phosphatase non-receptor type 22 (Mus musculus) (UniProt P29352); assay: Inhibition of LYP-mediated TCR signaling in anti-CD3 and anti-CD4 antibody stimulated mouse Ptpn22+/+ T cells assessed as increase in Lck Y394 phosphorylation at 50 uM by Western blotting; details: T-cell
T2 sequence (whole entry): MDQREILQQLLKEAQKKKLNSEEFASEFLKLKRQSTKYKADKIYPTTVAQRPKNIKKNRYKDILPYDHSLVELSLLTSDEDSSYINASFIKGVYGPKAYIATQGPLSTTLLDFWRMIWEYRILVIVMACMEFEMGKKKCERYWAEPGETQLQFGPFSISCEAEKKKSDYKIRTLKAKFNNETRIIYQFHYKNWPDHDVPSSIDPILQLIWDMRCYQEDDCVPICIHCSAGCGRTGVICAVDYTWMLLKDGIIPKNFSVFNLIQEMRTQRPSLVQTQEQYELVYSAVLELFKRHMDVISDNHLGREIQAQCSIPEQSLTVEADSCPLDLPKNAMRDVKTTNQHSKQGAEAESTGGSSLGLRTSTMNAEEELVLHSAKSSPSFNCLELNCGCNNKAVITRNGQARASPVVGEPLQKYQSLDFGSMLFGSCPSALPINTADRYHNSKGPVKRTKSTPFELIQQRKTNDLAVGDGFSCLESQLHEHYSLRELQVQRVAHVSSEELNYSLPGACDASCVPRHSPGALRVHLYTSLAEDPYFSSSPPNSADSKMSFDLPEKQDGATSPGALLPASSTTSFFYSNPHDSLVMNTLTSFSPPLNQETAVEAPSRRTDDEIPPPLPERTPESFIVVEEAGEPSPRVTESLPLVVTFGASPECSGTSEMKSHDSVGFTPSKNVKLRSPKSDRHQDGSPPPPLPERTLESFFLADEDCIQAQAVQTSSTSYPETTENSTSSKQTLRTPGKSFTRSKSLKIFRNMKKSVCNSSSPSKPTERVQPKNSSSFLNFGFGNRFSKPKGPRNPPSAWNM

Row | Compound | inhibition
9 | Cc1ccc2[nH]c(=O)c(C(c3nnnn3C3CCCC3)N3CCCC4(CCCCC4)C3)cc2c1 (stereo unspecified) | Active

target: T2, Tyrosine-protein phosphatase non-receptor type 22 (Mus musculus); assay: Inhibition of LYP in anti-CD3 and antiCD28 antibody-stimulated C57BL/6 mouse CD4+ splenocytes assessed as increase in TCR signaling-stimulated CD69 expression at 100 uM incubated for 24 hrs (reference value: 29.2%); set-up: scale not given: the % may be the effect or the level left; details: not given

Row | Compound | Activity [%]
10 | Cc1ccc2[nH]c(=O)c(C(c3nnnn3C3CCCC3)N3CCCC4(CCCCC4)C3)cc2c1 (stereo unspecified) | 38.9

target: T3, Tyrosine-protein phosphatase non-receptor type 22 (Homo sapiens, UniProt Q9Y2R2); assay: not given; details: not given
T3 sequence (Q9Y2R2 whole entry): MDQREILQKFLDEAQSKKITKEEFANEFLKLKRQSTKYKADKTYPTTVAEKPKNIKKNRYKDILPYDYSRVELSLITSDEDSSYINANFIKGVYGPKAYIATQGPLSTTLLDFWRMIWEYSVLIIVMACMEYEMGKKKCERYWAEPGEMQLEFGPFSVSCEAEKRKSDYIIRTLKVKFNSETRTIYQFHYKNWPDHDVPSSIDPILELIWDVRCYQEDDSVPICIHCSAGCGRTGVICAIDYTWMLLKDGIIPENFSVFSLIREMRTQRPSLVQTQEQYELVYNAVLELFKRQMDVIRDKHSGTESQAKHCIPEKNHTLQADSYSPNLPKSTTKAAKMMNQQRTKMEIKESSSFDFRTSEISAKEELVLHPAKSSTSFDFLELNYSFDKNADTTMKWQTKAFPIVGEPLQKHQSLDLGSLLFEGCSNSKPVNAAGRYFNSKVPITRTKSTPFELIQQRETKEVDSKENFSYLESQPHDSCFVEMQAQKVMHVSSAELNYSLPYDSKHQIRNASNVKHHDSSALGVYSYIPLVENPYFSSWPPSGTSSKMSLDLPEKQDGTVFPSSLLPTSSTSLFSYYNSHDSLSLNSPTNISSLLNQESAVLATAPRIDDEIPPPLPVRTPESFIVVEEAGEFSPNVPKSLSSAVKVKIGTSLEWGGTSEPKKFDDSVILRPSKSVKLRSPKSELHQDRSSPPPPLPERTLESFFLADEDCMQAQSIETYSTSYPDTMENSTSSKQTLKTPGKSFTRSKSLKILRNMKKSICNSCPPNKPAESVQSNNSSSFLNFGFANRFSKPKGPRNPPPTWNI

Row | Compound | Ki [µM]
11 | Cc1ccc2[nH]c(=O)c(C(c3nnnn3C3CCCC3)N3CCN(C(c4ccccc4)c4ccccc4)CC3)cc2c1 (stereo unspecified) | 11

target: T2, Tyrosine-protein phosphatase non-receptor type 22 (Mus musculus); assay: Inhibition of LYP in anti-CD3 and antiCD28 antibody-stimulated C57BL/6 mouse CD8+ splenocytes assessed as increase in TCR signaling-stimulated CD69 expression at 50 uM incubated for 24 hrs (reference value: 5.3%); set-up: scale not given: the % may be the effect or the level left; details: not given

Row | Compound | Activity [%]
12 | Cc1ccc2[nH]c(=O)c(C(c3nnnn3C3CCCC3)N3CCCC4(CCCCC4)C3)cc2c1 (stereo unspecified) | 12.1

target: T4, Low molecular weight phosphotyrosine protein phosphatase (Homo sapiens, UniProt P24666); assay: not given; details: not given
T4 sequence (P24666 whole entry): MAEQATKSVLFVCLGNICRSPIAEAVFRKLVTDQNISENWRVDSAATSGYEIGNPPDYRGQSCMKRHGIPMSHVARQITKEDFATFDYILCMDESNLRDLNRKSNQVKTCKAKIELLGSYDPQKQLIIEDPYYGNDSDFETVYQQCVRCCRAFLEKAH

Row | Compound | IC50 [µM]
13 | Cc1ccc2cc(C#N)c(SCC(=O)Nc3ccc4c(c3)OCO4)nc2c1 | > 90
14 | Cc1cccc2cc(C#N)c(SCC(=O)Nc3cccc(Cl)c3)nc12 | > 90
15 | CCOc1ccc(NC(=O)CSc2nc3c(C)cc(C)cc3cc2C#N)cc1 | > 90
16 | COc1ccc(-n2ncc3c(SCC(=O)N4c5ccccc5CC4C)ncnc32)cc1 (stereo unspecified) | > 90
17 | Cc1ccc2cc(C#N)c(SCC(=O)NC3CCCCC3)nc2c1C | 45.3
18 | Cc1ccc2sc(NC(=O)c3sc4ccccc4c3Cl)nc2c1 | > 90
19 | Cc1ccc(NC(=O)CSc2nc3c(C)c(C)ccc3cc2C#N)cc1C | 53.3
20 | COc1ccc2cc(C#N)c(SCC(=O)Nc3cccc(C)c3C)nc2c1 | 60.9

target: T3, Tyrosine-protein phosphatase non-receptor type 22; assay: not given; details: not given; remark: another data set of the same source

Row | Compound | IC50 [µM]
21 | Cc1ccc2[nH]c(=O)c(C(c3nnnn3C3CCCC3)N3CCN(C4CCCCC4)CC3)cc2c1 (stereo unspecified) | > 40
22 | Cc1ccc2cc(C#N)c(SCC(=O)Nc3ccc4c(c3)OCO4)nc2c1 | 23.3
23 | Cc1cccc2cc(C#N)c(SCC(=O)Nc3cccc(Cl)c3)nc12 | 27.2
24 | CCOc1ccc(NC(=O)CSc2nc3c(C)cc(C)cc3cc2C#N)cc1 | 28.1
25 | Cc1ccc2[nH]c(=O)c(C(c3nnnn3C3CCCC3)N3CCCCC3)cc2c1 (stereo unspecified) | 30.9
26 | Cc1ccc2cc(C#N)c(SCC(=O)NC3CCCCC3)nc2c1C | 19.8
27 | Cc1ccc2sc(NC(=O)c3sc4ccccc4c3Cl)nc2c1 | 29.5
28 | Cc1ccc(NC(=O)CSc2nc3c(C)c(C)ccc3cc2C#N)cc1C | 26.6
29 | COc1ccc2cc(C#N)c(SCC(=O)Nc3cccc(C)c3C)nc2c1 | 30.5

target: T2, Tyrosine-protein phosphatase non-receptor type 22 (Mus musculus); assay: Inhibition of LYP in anti-CD3 and antiCD28 antibody-stimulated C57BL/6 mouse CD4+ splenocytes assessed as increase in TCR signaling-stimulated CD69 expression at 50 uM incubated for 24 hrs (reference value: 29.2%); set-up: scale not given: the % may be the effect or the level left; details: not given

Row | Compound | Activity [%]
30 | Cc1ccc2[nH]c(=O)c(C(c3nnnn3C3CCCC3)N3CCCC4(CCCCC4)C3)cc2c1 (stereo unspecified) | 36.8

target: T3, Tyrosine-protein phosphatase non-receptor type 22; assay: not given; details: not given; remark: another data set of the same source

Row | Compound | Ki [µM]
31 | Cc1ccc2[nH]c(=O)c(C(c3nnnn3C3CCCC3)N3CCN(C(c4ccccc4)c4ccccc4)CC3)cc2c1 (stereo unspecified) | 21.3

target: T5, Tyrosine-protein phosphatase non-receptor type 12 (Homo sapiens, UniProt Q05209); assay: not given; details: not given
T5 sequence (Q05209 whole entry): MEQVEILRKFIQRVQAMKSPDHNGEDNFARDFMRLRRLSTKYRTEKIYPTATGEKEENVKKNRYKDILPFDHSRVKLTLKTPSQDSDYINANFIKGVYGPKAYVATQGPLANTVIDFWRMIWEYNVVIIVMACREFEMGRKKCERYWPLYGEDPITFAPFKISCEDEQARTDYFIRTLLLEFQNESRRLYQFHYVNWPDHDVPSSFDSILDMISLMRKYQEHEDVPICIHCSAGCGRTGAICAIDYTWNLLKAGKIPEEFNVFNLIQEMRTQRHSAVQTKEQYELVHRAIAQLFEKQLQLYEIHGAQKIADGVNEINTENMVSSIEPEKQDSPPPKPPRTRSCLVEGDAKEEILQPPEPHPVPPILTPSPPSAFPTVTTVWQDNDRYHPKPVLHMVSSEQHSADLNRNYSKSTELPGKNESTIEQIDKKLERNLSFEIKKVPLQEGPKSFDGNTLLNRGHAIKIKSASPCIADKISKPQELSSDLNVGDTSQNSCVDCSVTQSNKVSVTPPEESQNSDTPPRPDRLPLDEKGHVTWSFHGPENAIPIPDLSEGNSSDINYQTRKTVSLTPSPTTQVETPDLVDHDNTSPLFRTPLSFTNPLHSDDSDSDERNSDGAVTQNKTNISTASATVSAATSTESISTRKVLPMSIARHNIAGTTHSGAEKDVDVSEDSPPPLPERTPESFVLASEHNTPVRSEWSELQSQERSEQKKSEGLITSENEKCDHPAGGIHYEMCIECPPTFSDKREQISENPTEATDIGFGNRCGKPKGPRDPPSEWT

Row | Compound | IC50 [µM]
32 | Cc1ccc2cc(C#N)c(SCC(=O)Nc3ccc4c(c3)OCO4)nc2c1 | 36
33 | Cc1cccc2cc(C#N)c(SCC(=O)Nc3cccc(Cl)c3)nc12 | 28
34 | CCOc1ccc(NC(=O)CSc2nc3c(C)cc(C)cc3cc2C#N)cc1 | 16
35 | COc1ccc(-n2ncc3c(SCC(=O)N4c5ccccc5CC4C)ncnc32)cc1 (stereo unspecified) | > 40
36 | Cc1ccc2cc(C#N)c(SCC(=O)NC3CCCCC3)nc2c1C | 21
37 | Cc1ccc2sc(NC(=O)c3sc4ccccc4c3Cl)nc2c1 | 14
38 | Cc1ccc(NC(=O)CSc2nc3c(C)c(C)ccc3cc2C#N)cc1C | 27.5
39 | COc1ccc2cc(C#N)c(SCC(=O)Nc3cccc(C)c3C)nc2c1 | 18

target: T2, Tyrosine-protein phosphatase non-receptor type 22 (Mus musculus); assay: Inhibition of LYP in anti-CD3 and antiCD28 antibody-stimulated C57BL/6 mouse CD8+ splenocytes assessed as increase in TCR signaling-stimulated CD69 expression at 100 uM incubated for 24 hrs (reference value: 5.3%); set-up: scale not given: the % may be the effect or the level left; details: not given

Row | Compound | Activity [%]
40 | Cc1ccc2[nH]c(=O)c(C(c3nnnn3C3CCCC3)N3CCCC4(CCCCC4)C3)cc2c1 (stereo unspecified) | 13.7

test system: not listed separately; assay: Inhibition of TCR signaling in anti-CD3 and anti-CD4 antibody stimulated mouse Ptpn22-/- T cells assessed as increase in Lck Y394 phosphorylation at 50 uM by Western blotting; details: T-cell

Row | Compound | inhibition
41 | Cc1ccc2[nH]c(=O)c(C(c3nnnn3C3CCCC3)N3CCCC4(CCCCC4)C3)cc2c1 (stereo unspecified) | inactive
